The values that follow are results of earlier work, collected in publication PMC2777304 (PLoS Pathogens, 2009).

Each structure is given as a SMILES string. Counter-ions that a name gives are not always drawn.

The conditions of this data set: mouse, in vivo.

Turning to `CCN(CC)CCCC(C)Nc1c2ccc(Cl)cc2nc2ccc(OC)cc12` (stereo not shown) [quinacrine, Quinacrine dihydrochloride], the “Highest nontoxic tolerable dose” value was 40 mg/kg/day.
